Assays:
[1] = test system: control sera (pooled serum of ten healthy LUMC hospital workers; commercial negative donor pooled serum from the Dutch bloodbank); type: binding, human; parameters: Binding of Control serum LUMC to linear peptides / Binding of Control serum Blood-bank to linear peptides / Binding of Control serum LUMC to looped peptides / Binding of Control Serum Blood-Bank to Looped peptides / Binding of Control serum LUMC to linear peptides of the protein M of SARS-CoV Urbani / Binding of Control serum Blood-bank to linear peptides of the protein M of SARS-CoV Urbani / Binding of Control serum LUMC to looped peptides of the protein M of SARS-CoV Urbani / Binding of Control Serum Blood-Bank to Looped peptides of the protein M of SARS-CoV Urbani: unit not given here
[2] = test system: rabbit serum obtained by immunizing a rabbit with the SARS-CoV strain Frankfurt 1; type: binding; parameters: Binding of a rabbit serum to linear peptides / Binding of a rabbit serum to looped peptides / Rabbit serum linear peptides / Rabbit serum looped peptides / Binding of a rabbit serum to linear peptides of protein N of SARS-CoV Urbani (Rabbit serum linear peptides) / Binding of a rabbit serum to looped/cyclic peptides of protein N of SARS-CoV Urbani (Rabbit serum looped peptides): unit not given here
[3] = test system: recombinant human anti-SARS-CoV antibody 03-018; type: binding; parameters: Binding of antibody 03-018 to linear peptides of the N protein of SARS-CoV Urbani / Binding of antibody 03-018 to looped/cyclic peptides of the N protein of SARS-CoV Urbani: unit not given here
[4] = test system: antibodies in sera from SARS patients (sera 1a, 1b, 2, 6, 37, 62, London, SARS-yellow, SARS-green); type: binding, human; parameters: Binding of serum 6 to linear peptides of protein X1 of SARS-CoV Urbani / Binding of serum 37 to linear peptides of protein X1 of SARS-CoV Urbani / Binding of serum 6 to looped/cyclic peptide (PEPSCAN-ELISA) / Binding of serum 37 to looped/cyclic peptide (PEPSCAN-ELISA) / Binding of serum 37 to looped/cyclic peptides of protein X1 of SARS-CoV Urbani / Binding of serum 6 to linear peptides of protein X2 / Binding of serum 37 to linear peptides of protein X2 / Binding of serum 37 to looped/cyclic peptides of protein X2 of SARS-CoV Urbani / Binding of serum 6 to linear peptides of protein M of SARS-CoV Urbani / Binding of serum 37 to linear peptides of protein M of SARS-CoV Urbani / Binding of serum 6 to looped/cyclic peptides of protein M of SARS-CoV Urbani / Binding of serum 37 to looped/cyclic peptides of protein M of SARS-CoV Urbani / Binding of serum 6 to linear peptides of protein X3 of SARS-CoV Urbani / Binding of serum 37 to linear peptides of protein X3 of SARS-CoV Urbani / Binding of serum 37 to looped/cyclic peptides of protein X3 of SARS-CoV Urbani / Binding of serum 6 to linear peptides of protein X4 of SARS-CoV Urbani / Binding of serum 37 to linear peptides of protein X4 of SARS-CoV Urbani / Binding of serum 37 to looped/cyclic peptides of protein X4 of SARS-CoV Urbani / Binding of serum 6 to linear peptides of protein X5 of SARS-CoV Urbani / Binding of serum 37 to linear peptides of protein X5 of SARS-CoV Urbani / Binding of serum 37 to looped/cyclic peptides of protein X5 of SARS-CoV Urbani / Binding of serum 6 to linear peptides of protein N of SARS-CoV Urbani / Binding of serum 37 to linear peptides of protein N of SARS-CoV Urbani / Binding of serum 6 to linear peptide (PEPSCAN-ELISA) / Binding of serum 1a to looped/cyclic peptides of protein N of SARS-CoV Urbani / Binding of serum 1b to looped/cyclic peptides of protein N of SARS-CoV Urbani / Binding of serum 2 to looped/cyclic peptides of protein N of SARS-CoV Urbani / Binding of serum 6 to looped/cyclic peptides of protein N of SARS-CoV Urbani / Binding of serum 37 to looped/cyclic peptides of protein N of SARS-CoV Urbani / Binding of serum 62 to looped/cyclic peptides of protein N of SARS-CoV Urbani / Binding of serum London to looped/cyclic peptides of protein N of SARS-CoV Urbani / Binding of serum SARS-green to looped/cyclic peptides of protein N of SARS-CoV Urbani: unit not given here

SGGGETALALLLLDR
Binding of Control Serum Blood-Bank to Looped peptides [1]: 0.7 | Binding of Control serum Blood-bank to linear peptides [1]: 0.7 | Binding of Control serum LUMC to linear peptides [1]: 0.6 | Binding of Control serum LUMC to looped peptides [1]: 0.7 | Binding of a rabbit serum to linear peptides of protein N of SARS-CoV Urbani (Rabbit serum linear peptides) [2]: 0.2 | Binding of a rabbit serum to looped/cyclic peptides of protein N of SARS-CoV Urbani (Rabbit serum looped peptides) [2]: 0.7 | Binding of antibody 03-018 to linear peptides of the N protein of SARS-CoV Urbani [3]: 0.1 | Binding of antibody 03-018 to looped/cyclic peptides of the N protein of SARS-CoV Urbani [3]: 0.2 | Binding of serum 1a to linear peptide (PEPSCAN-ELISA) [4]: 0.3 | Binding of serum 1a to looped/cyclic peptides of protein N of SARS-CoV Urbani [4]: 0.4 | Binding of serum 1b to linear peptide (PEPSCAN-ELISA) [4]: 0.1 | Binding of serum 1b to looped/cyclic peptides of protein N of SARS-CoV Urbani [4]: 0.2 | Binding of serum 2 to linear peptide (PEPSCAN-ELISA) [4]: 0.2 | Binding of serum 2 to looped/cyclic peptides of protein N of SARS-CoV Urbani [4]: 0.5 | Binding of serum 6 to linear peptide (PEPSCAN-ELISA) [4]: 0.2 | Binding of serum 6 to looped/cyclic peptides of protein N of SARS-CoV Urbani [4]: 0.3 | Binding of serum 37 to linear peptide (PEPSCAN-ELISA) [4]: 0.7 | Binding of serum 37 to looped/cyclic peptides of protein N of SARS-CoV Urbani [4]: 0.7 | Binding of serum 62 to linear peptide (PEPSCAN-ELISA) [4]: 0.7 | Binding of serum 62 to looped/cyclic peptides of protein N of SARS-CoV Urbani [4]: 0.7 | Binding of serum London to linear peptide (PEPSCAN-ELISA) [4]: 0.4 | Binding of serum London to looped/cyclic peptides of protein N of SARS-CoV Urbani [4]: 0.5 | Binding of serum SARS-green to linear peptide (PEPSCAN-ELISA) [4]: 0.1 | Binding of serum SARS-green to looped/cyclic peptides of protein N of SARS-CoV Urbani [4]: 0.1 | Binding of serum SARS-yellow to linear peptide (PEPSCAN-ELISA) [4]: 0.5 | Binding of serum SARS-yellow to looped/cyclic peptides of protein N of SARS-CoV Urbani [4]: 0.7

GMSRIGMEVTPSGTW
Control Serum Blood-Bank Looped peptides [1]: 0.6 | Control serum Blood-bank linear peptides [1]: 0.6 | Control serum LUMC linear peptides [1]: 0.6 | Control serum LUMC looped peptides [1]: 0.5 | Binding of a rabbit serum to linear peptides of protein N of SARS-CoV Urbani (Rabbit serum linear peptides) [2]: 0.1 | Binding of a rabbit serum to looped/cyclic peptides of protein N of SARS-CoV Urbani (Rabbit serum looped peptides) [2]: 0.4 | Binding of antibody 03-018 to linear peptides of the N protein of SARS-CoV Urbani [3]: 0.1 | Binding of antibody 03-018 to looped/cyclic peptides of the N protein of SARS-CoV Urbani [3]: 0.2 | Binding of serum 1a to linear peptides of protein N of SARS-CoV Urbani [4]: 0.3 | Binding of serum 1a to looped/cyclic peptides of protein N of SARS-CoV Urbani [4]: 0.3 | Binding of serum 1b to linear peptides of protein N of SARS-CoV Urbani [4]: 0.1 | Binding of serum 1b to looped/cyclic peptides of protein N of SARS-CoV Urbani [4]: 0.2 | Binding of serum 2 to linear peptides of protein N of SARS-CoV Urbani [4]: 0.2 | Binding of serum 2 to looped/cyclic peptides of protein N of SARS-CoV Urbani [4]: 0.3 | Binding of serum 6 to linear peptides of protein N of SARS-CoV Urbani [4]: 0.2 | Binding of serum 6 to looped/cyclic peptides of protein N of SARS-CoV Urbani [4]: 0.2 | Binding of serum 37 to linear peptides of protein N of SARS-CoV Urbani [4]: 0.7 | Binding of serum 37 to looped/cyclic peptides of protein N of SARS-CoV Urbani [4]: 0.5 | Binding of serum 62 to linear peptides of protein N of SARS-CoV Urbani [4]: 0.7 | Binding of serum 62 to looped/cyclic peptides of protein N of SARS-CoV Urbani [4]: 0.5 | Binding of serum London to linear peptides of protein N of SARS-CoV Urbani [4]: 0.5 | Binding of serum London to looped/cyclic peptides of protein N of SARS-CoV Urbani [4]: 0.4 | Binding of serum SARS-green to linear peptides of protein N of SARS-CoV Urbani [4]: 0.5 | Binding of serum SARS-green to looped/cyclic peptides of protein N of SARS-CoV Urbani [4]: 0.3 | Binding of serum SARS-yellow to linear peptides of protein N of SARS-CoV Urbani [4]: 0.7 | Binding of serum SARS-yellow to looped/cyclic peptides of protein N of SARS-CoV Urbani [4]: 0.5

GTDYKHWPQIAQFAP
Control Serum Blood-Bank Looped peptides [1]: 0.8 | Control serum Blood-bank linear peptides [1]: 0.8 | Control serum LUMC linear peptides [1]: 0.6 | Control serum LUMC looped peptides [1]: 0.7 | Binding of a rabbit serum to linear peptides of protein N of SARS-CoV Urbani (Rabbit serum linear peptides) [2]: 0.2 | Binding of a rabbit serum to looped/cyclic peptides of protein N of SARS-CoV Urbani (Rabbit serum looped peptides) [2]: 0.5 | Binding of antibody 03-018 to linear peptides of the N protein of SARS-CoV Urbani [3]: 0.1 | Binding of antibody 03-018 to looped/cyclic peptides of the N protein of SARS-CoV Urbani [3]: 0.2 | Binding of serum 1a to linear peptides of protein N of SARS-CoV Urbani [4]: 0.3 | Binding of serum 1a to looped/cyclic peptides of protein N of SARS-CoV Urbani [4]: 0.5 | Binding of serum 1b to linear peptides of protein N of SARS-CoV Urbani [4]: 0.1 | Binding of serum 1b to looped/cyclic peptides of protein N of SARS-CoV Urbani [4]: 0.3 | Binding of serum 2 to linear peptides of protein N of SARS-CoV Urbani [4]: 0.2 | Binding of serum 2 to looped/cyclic peptides of protein N of SARS-CoV Urbani [4]: 0.5 | Binding of serum 6 to linear peptides of protein N of SARS-CoV Urbani [4]: 0.2 | Binding of serum 6 to looped/cyclic peptides of protein N of SARS-CoV Urbani [4]: 0.3 | Binding of serum 37 to linear peptides of protein N of SARS-CoV Urbani [4]: 0.7 | Binding of serum 37 to looped/cyclic peptides of protein N of SARS-CoV Urbani [4]: 0.7 | Binding of serum 62 to linear peptides of protein N of SARS-CoV Urbani [4]: 0.8 | Binding of serum 62 to looped/cyclic peptides of protein N of SARS-CoV Urbani [4]: 0.7 | Binding of serum London to linear peptides of protein N of SARS-CoV Urbani [4]: 0.6 | Binding of serum London to looped/cyclic peptides of protein N of SARS-CoV Urbani [4]: 0.5 | Binding of serum SARS-green to linear peptides of protein N of SARS-CoV Urbani [4]: 0.6 | Binding of serum SARS-yellow to linear peptides of protein N of SARS-CoV Urbani [4]: 0.7 | Binding of serum SARS-yellow to looped/cyclic peptides of protein N of SARS-CoV Urbani [4]: 0.7

KQRRPQGLPNNTASW
Binding of Control Serum Blood-Bank to Looped peptides [1]: 0.6 | Binding of Control serum Blood-bank to linear peptides [1]: 0.7 | Binding of Control serum LUMC to linear peptides [1]: 0.5 | Binding of Control serum LUMC to looped peptides [1]: 0.6 | Binding of a rabbit serum to linear peptides of protein N of SARS-CoV Urbani (Rabbit serum linear peptides) [2]: 0.1 | Binding of a rabbit serum to looped/cyclic peptides of protein N of SARS-CoV Urbani (Rabbit serum looped peptides) [2]: 0.6 | Binding of antibody 03-018 to linear peptides of the N protein of SARS-CoV Urbani [3]: 0.1 | Binding of antibody 03-018 to looped/cyclic peptides of the N protein of SARS-CoV Urbani [3]: 0.2 | Binding of serum 1a to linear peptides of protein N of SARS-CoV Urbani [4]: 0.2 | Binding of serum 1a to looped/cyclic peptides of protein N of SARS-CoV Urbani [4]: 0.4 | Binding of serum 1b to linear peptides of protein N of SARS-CoV Urbani [4]: 0.1 | Binding of serum 1b to looped/cyclic peptides of protein N of SARS-CoV Urbani [4]: 0.2 | Binding of serum 2 to linear peptides of protein N of SARS-CoV Urbani [4]: 0.2 | Binding of serum 2 to looped/cyclic peptides of protein N of SARS-CoV Urbani [4]: 0.4 | Binding of serum 6 to linear peptides of protein N of SARS-CoV Urbani [4]: 0.1 | Binding of serum 6 to looped/cyclic peptides of protein N of SARS-CoV Urbani [4]: 0.4 | Binding of serum 37 to linear peptides of protein N of SARS-CoV Urbani [4]: 0.7 | Binding of serum 37 to looped/cyclic peptides of protein N of SARS-CoV Urbani [4]: 0.6 | Binding of serum 62 to linear peptides of protein N of SARS-CoV Urbani [4]: 0.6 | Binding of serum 62 to looped/cyclic peptides of protein N of SARS-CoV Urbani [4]: 0.5 | Binding of serum London to linear peptides of protein N of SARS-CoV Urbani [4]: 0.4 | Binding of serum London to looped/cyclic peptides of protein N of SARS-CoV Urbani [4]: 0.6 | Binding of serum SARS-green to linear peptides of protein N of SARS-CoV Urbani [4]: 0.3 | Binding of serum SARS-green to looped/cyclic peptides of protein N of SARS-CoV Urbani [4]: 0.3 | Binding of serum SARS-yellow to linear peptides of protein N of SARS-CoV Urbani [4]: 0.5 | Binding of serum SARS-yellow to looped/cyclic peptides of protein N of SARS-CoV Urbani [4]: 0.7

From US20070128217A1 (priority 2003, published 2007)
